Experiments:
SIK1 = biological target: T1, SIK1 (Homo sapiens, UniProt P57059); experiment: ADP-Glo kinase assay, SIK1; assay type: biochemical
T1 construct: purchased Carna Biosciences 02-131
Outline: (§1)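 Luminescent ADP-formation read-out: enzyme–substrate mix + ATP, 120 min RT; ATP depletion 40 min RT; ADP→ATP conversion with luciferase/luciferin 30 min RT. Controls: 1% DMSO (negative), 10 μM staurosporine final (positive).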

SIK3 = biological target: T2, SIK3 (Homo sapiens, UniProt Q9Y2K2); experiment: ADP-Glo kinase assay, SIK3; assay type: biochemical
T2 construct: purchased SignalChem S12-11G-100
Outline: as §1

[1] = test system: LPS-induced TNFα in monocytes; experiment: Monocytes assay: LPS-triggered TNFα (ELISA); assay type: cell-based, human; details: Homo sapiens, Monocyte, LPS-triggered TNFα inhibition
Outline: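 CD14+ monocytes were magnetically isolated from human buffy-coat PBMCs, preincubated with compound 1 h at 37 °C (0.2% DMSO), then stimulated with LPS at 200 ng/mL for 4 h. Supernatant TNFα was measured by luminescent sandwich ELISA; percentage inhibition was calculated against controls for each concentration.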

[2] = test system: LPS triggered IL-10 secretion in monocytes; experiment: Monocytes assay: LPS-triggered IL-10 (ELISA); assay type: cell-based, human; details: Homo sapiens, Monocyte, LPS-triggered IL-10 induction, median maximal fold change vs LPS only, read-out: IL-10 FCmax median
Outline: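 CD14+ monocytes bead-isolated from human PBMCs, pretreated with compound 1 h at 37 °C (0.2% DMSO), then stimulated with LPS 200 ng/mL for 4 h. Supernatant IL-10 measured by chemiluminescent sandwich ELISA; fold change versus LPS only per concentration, reported as maximal fold change (FCmax).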

T2 sequence (Q9Y2K2 59-365 limits assumed): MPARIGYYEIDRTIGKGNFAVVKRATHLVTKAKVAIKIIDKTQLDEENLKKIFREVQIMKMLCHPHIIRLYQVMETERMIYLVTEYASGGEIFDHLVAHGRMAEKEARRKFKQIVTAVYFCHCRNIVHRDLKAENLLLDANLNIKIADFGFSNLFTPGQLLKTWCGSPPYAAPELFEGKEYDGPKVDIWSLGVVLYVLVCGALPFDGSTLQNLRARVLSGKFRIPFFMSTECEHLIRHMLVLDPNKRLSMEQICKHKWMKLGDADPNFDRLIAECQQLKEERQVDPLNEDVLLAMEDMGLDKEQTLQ
T1 sequence (P57059 whole entry): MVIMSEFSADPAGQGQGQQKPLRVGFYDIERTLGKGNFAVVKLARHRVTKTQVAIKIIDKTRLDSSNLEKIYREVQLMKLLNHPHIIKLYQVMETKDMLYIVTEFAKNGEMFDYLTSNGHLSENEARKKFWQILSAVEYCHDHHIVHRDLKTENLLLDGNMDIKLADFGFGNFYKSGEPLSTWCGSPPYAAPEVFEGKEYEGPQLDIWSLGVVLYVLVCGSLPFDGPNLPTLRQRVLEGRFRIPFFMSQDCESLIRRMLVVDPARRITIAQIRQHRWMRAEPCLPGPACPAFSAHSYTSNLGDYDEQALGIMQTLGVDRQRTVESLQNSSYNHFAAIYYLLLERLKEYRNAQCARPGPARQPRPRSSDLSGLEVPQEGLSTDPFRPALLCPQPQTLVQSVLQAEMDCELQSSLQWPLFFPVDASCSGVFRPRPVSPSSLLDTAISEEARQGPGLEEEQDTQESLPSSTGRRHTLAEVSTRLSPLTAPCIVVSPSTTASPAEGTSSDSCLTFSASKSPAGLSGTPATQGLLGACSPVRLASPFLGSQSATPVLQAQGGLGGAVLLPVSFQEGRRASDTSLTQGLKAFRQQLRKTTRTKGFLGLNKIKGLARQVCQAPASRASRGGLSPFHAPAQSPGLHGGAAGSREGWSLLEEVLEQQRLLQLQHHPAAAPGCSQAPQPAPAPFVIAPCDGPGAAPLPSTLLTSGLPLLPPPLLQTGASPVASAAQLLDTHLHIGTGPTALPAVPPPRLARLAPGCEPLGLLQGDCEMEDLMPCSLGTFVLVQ

Row | IC50 (SIK1) [nM] | IC50 (SIK3) [nM] | EC50 [1] [nM] | SMILES | maximal fold induction [2]
1 | > 500 | 0.01 to 10 | 100 to 1000 | COc1cc(-c2cnn3cc(C4(O)CCC4)ccc23)cc(OC(F)F)c1C(=O)N[C@@H]1C[C@@H]1F [Cpd 266, 2-(difluoromethoxy)-N-[(1R,2S)-2-fluorocyclopropyl]-4-[6-(1-hydroxycyclobutyl)pyrazolo[1,5-a]pyridin-3-yl]-6-methoxy-benzamide] | < 1.5
2 | > 500 | 0.01 to 10 | 100 to 1000 | COc1cc(-c2cnn3cc(C(C)(C)CN4CCOCC4)ccc23)cc(OC(F)F)c1C(=O)N[C@@H]1C[C@@H]1F [Cpd 269, 2-(difluoromethoxy)-4-[6-(1,1-dimethyl-2-morpholino-ethyl)pyrazolo[1,5-a]pyridin-3-yl]-N-[(1R,2S)-2-fluorocyclopropyl]-6-methoxy-benzamide] | 1.5 to 4.5

Row | SMILES | IC50 (SIK1) [nM] | IC50 (SIK3) [nM] | EC50 [1] [nM] | maximal fold induction [2]
3 | COc1cc(-c2cnn3cc(C4(N)CCC4)ccc23)cc(OC(F)F)c1C(=O)N[C@@H]1C[C@@H]1F [Cpd 261, 4-[6-(1-aminocyclobutyl)pyrazolo[1,5-a]pyridin-3-yl]-2-(difluoromethoxy)-N-[(1R,2S)-2-fluorocyclopropyl]-6-methoxy-benzamide] | > 500 | 0.01 to 10 | 100 to 1000 | < 1.5

Reference: patent publication US12391679B2, “Benzamide-substituted bicyclic imidazo- and pyrazolo-fused -pyridine, -pyrimide, and -pyridazine compounds for treatment of inflammatory diseases” (ONCO3R Therapeutics BV, priority 2019, dated 2025)
